Assay results reported in patent publication US9937250B2, “Immunogenic tumor associated stromal cell antigen peptides and methods of their use” (University of Pittsburgh—Of the Commonwealth System of …, priority 2011, dated 2018).

Columns and labels:
B16 melanoma = experiment: Therapeutic vaccination of established B16 melanoma (tumor growth, survival); assay type: in vivo, HHD or C57BL/6 (B6) mice; details: for Survival of B16-bearing HHD mice: followed through 60 days post-tumor inoculation (FIG. 11C); for B16 tumor growth in HHD mice: therapeutic vaccines, HHD mice (FIG. 11B)
Experimental: FIGS. 11A-11C show a series of graphs illustrating that DC.IL12 vaccines containing TASA-derived peptides are therapeutic against MC38 colon carcinomas and B16 melanomas in HHD mice. In FIG. 11A, HHD mice bearing established day seven subcutaneous MC38 tumors (right flank) were left untreated, or they were vaccinated in the left flank with control DC.IL12 or DC.IL12 pulsed with an equimolar pool (10 μM each) of the following TASA-derived peptides: DLK1326-334, EPhA2883-891, HBB31-39, NRP1869-877, PDGFRβ890-898, RGS55-13 and TEM1691-700. Identical booster vaccines were provided on day 14 post-tumor inoculation. As indicated, two vaccine cohorts were treated with depleting anti-CD4 or anti-CD8 monoclonal antibodies to evaluate the impact of these T cell subsets on therapy outcome. Tumor growth was monitored every 3-4 days through d28. In FIG. 11B, Female HHD or C57BL/6 (B6) mice were inoculated subcutaneously in the right flank with 1×10^5B16 (HLA-A2^neg) tumor cells. […] The mice then received vaccines consisting of isologous control or peptide-pulsed DC.IL12 cells subcutaneously in the left flank on days 10 and 17 (post-tumor inoculation). In cases where more than one peptide was identified for a given target antigen, an equimolar pool of the indicated peptides (each 10 μM) was pulsed onto DC.IL12 and used for vaccination. Tumor size (mean+/−SD) was monitored every 3-4 days through day 34. In FIG. 11A and FIG. 11B, mean tumor area+/−SD is reported for 5 animals/cohort. Data are the representative of those obtained in two independent experiments in each case. *p<0.05 versus DC only on the indicated days. In FIG. 11C, HHD mice bearing subcutaneous B16 melanomas were treated as described in FIG. 11B and followed through day 60 post-tumor inoculation. Data are reported in a Kaplan-Meier plot depicting overall percentage of surviving animals over time. *p<0.02 versus DC only; **p<0.002 versus DC only (with refined p-values for differences between treatment cohorts reported in Table 6). Data are cumulative for three independent experiments performed.
Vaccine Experiments. For prophylactic experiments, HHD mice were immunized subcutaneously on the right flank with 100 μl PBS or PBS containing 10^6 syngenic DC.IL12 cells that had been untreated or pre-pulsed for 4 h at 37° C. with 10 μM synthetic peptide(s). […] For analysis of tumor cellular composition in repeat experiments, MC38 tumors were isolated by surgical resection 10 days after tumor inoculation and prepared for fluorescence imaging, as described below. […] In some assays, as indicated, in vivo antibody depletions (on days 6, 13 and 20 post-tumor inoculation to assess early involvement or on days 60 and 67 or 180 and 187 to assess late involvement) of protective CD4^+ T cells or CD8^+ T cells were performed and monitored as previously described (Zhao et al., Mol Ther., 19:805-814, 2011). In all cases, tumor size (area) was monitored every 3-4 days and is reported as mean+/−SD in mm^2.
To analyze the status and specificity of Tc1 cells, HHD mice rendered free of B16 melanoma after therapeutic vaccination with DLK or RGS5 peptide-based vaccines were sacrificed 60 days after tumor inoculation. Fresh MACS-isolated spleen CD8^+ T cells were then analyzed for reactivity against HLA-A2^+PDGFRβ^+CD31^neg pericytes, HLA-A2^+PDGFRβ^negCD31^+ VEC or HLA-A2^neg tumor cells flow-sorted from day 19 B16 tumors growing progressively in untreated HHD mice. […]

MC38 colon carcinoma = experiment: MC38 protection (prophylactic vaccination) model; assay type: in vivo, HHD mice; details: immunization days -14 and -7, tumor challenge day 0 (FIG. 9B)
From the text: FIGS. 9A-9B show a series of graphs illustrating induction of specific/protective CD8^+ T cells reactive against TASA as a consequence of DC/peptide-based vaccination. In FIG. 9A, HHD mice (five animals/cohort) were vaccinated twice (d-14, d-7) subcutaneously with PBS or with isologous DC.IL12 pulsed with PBS or synthetic peptides (Table 6) derived from the indicated TASA. In cases where more than 1 peptide was identified for a given target antigen, an equimolar pool of the indicated peptides (each 10 μM) was pulsed onto DC.IL12 and used for vaccination in the relevant cohort. One week after the second immunization, spleens were harvested and splenic CD8^+ T cells isolated using MACS-beads (Miltenyi). T cells were stimulated in vitro for 48 h using the HLA-A2^+ T2 cell line pulsed with relevant TASA vs. irrelevant HIV-nef190-198 ([…]; ref. 24) peptides. Cell-free supernatants were then recovered and IFN-γ levels by ELISA. Data are reported as mean+/−SD for triplicate ELISA determinations, and are representative of 3 independent experiments performed. *p<0.05 vs. HIV-nef control peptide responses. In FIG. 9B, HHD mice were vaccinated twice (days −14 and −7; right flank) subcutaneously with PBS or with isologous DC.IL12 pulsed with PBS or synthetic TASA peptides as indicated in FIG. 1A. In cases where more than 1 peptide is identified for a given target antigen, an equimolar pool of the indicated peptides (each 10 μM) was pulsed onto DC.IL12 and used for vaccination in the relevant cohort. One week after the booster vaccine (i.e. day zero), animals were challenged subcutaneously on their left flank with 2×10^6 MC38 colon carcinoma cells. Tumor growth was then monitored every 3-4 days through day 24. All data represent mean tumor area (in mm^2)+/−SD determined from 5 mice/cohort, and are representative of three independent experiments performed. *p<0.05 versus DC only on the indicated days.
Vaccine Experiments. For prophylactic experiments, HHD mice were immunized subcutaneously on the right flank with 100 μl PBS or PBS containing 10^6 syngenic DC.IL12 cells that had been untreated or pre-pulsed for 4 h at 37° C. with 10 μM synthetic peptide(s). Immunizations occurred on days −14 and −7, with mice subsequently receiving injections of MC38 (2×10^6) tumor cells in the left flank on d0. In all cases, treatment groups contained 5 mice per cohort. For analysis of tumor cellular composition in repeat experiments, MC38 tumors were isolated by surgical resection 10 days after tumor inoculation and prepared for fluorescence imaging, as described below. […] Mice were then untreated or treated with control, syngenic DC.IL12 or DC.IL12 (10^6 cells injected subcutaneously in the left flank on days 7 and 14) pulsed with synthetic TBVA peptides. In some assays, as indicated, in vivo antibody depletions (on days 6, 13 and 20 post-tumor inoculation to assess early involvement or on days 60 and 67 or 180 and 187 to assess late involvement) of protective CD4^+ T cells or CD8^+ T cells were performed and monitored as previously described (Zhao et al., Mol Ther., 19:805-814, 2011). In all cases, tumor size (area) was monitored every 3-4 days and is reported as mean+/−SD in mm^2.
The DLK1, EphA2, HBB, NG2, NRP1, NRP2, PDGFRβ, PSMA, RGS5, TEM1, VEGFR1 and VEGFR2 antigens were expressed in situ by blood vessel cells in the MC38 colon carcinoma TME (FIG. 14). Protection of HHD mice against a challenge with HLA-A2^neg MC38 tumor cells injected subcutaneously on day zero was assayed with immunization with TBVA-derived peptides on days −14 and −7. […]

RGS5: RGS5-derived peptide 5-13 pulsed onto DC or DC.IL12 (LAALPHSCL; listed as Homo sapiens)
Survival of B16-bearing HHD mice (B16 melanoma): significant survival benefits
B16 tumor growth in HHD mice (B16 melanoma): effective in suppressing tumor growth
Protection against HLA-A2neg MC38 tumor challenge (MC38 colon carcinoma): effective in preventing HLA-A2^neg MC38 tumor establishment or they resulted in the regression of tumors

TEM1: TEM1-derived peptide 691-700 pulsed onto DC or DC.IL12 (LLVPTCVFLV; listed as Homo sapiens)
Survival of B16-bearing HHD mice (B16 melanoma): significant survival benefits
Protection against HLA-A2neg MC38 tumor challenge (MC38 colon carcinoma): effective in preventing HLA-A2^neg MC38 tumor establishment or they resulted in the regression of tumors

EphA2: EphA2-derived peptide 883-891 pulsed onto DC or DC.IL12 (TLADFDPRV; listed as Homo sapiens)
Survival of B16-bearing HHD mice (B16 melanoma): significant survival benefits
B16 tumor growth in HHD mice (B16 melanoma): effective in suppressing tumor growth
Protection against HLA-A2neg MC38 tumor challenge (MC38 colon carcinoma): effective in preventing HLA-A2^neg MC38 tumor establishment or they resulted in the regression of tumors
